Data taken from patent US12441730B2, “PRMT5 inhibitors” (Merck Sharp & Dohme LLC, priority 2019, dated 2025).
Like-named read-outs stand apart in the source and are kept apart here.

What was measured:
[1] = target: T1, Full-length (FL)-PRMT5-MEP50 enzyme complex (Homo sapiens, UniProt O14744); experiment: PRMT5-MEP50 Enzyme Methylation Assay (Version A); type: biochemical
T1 construct: Full-length (FL)-PRMT5-MEP50 enzyme complex (recombinant proteins from baculovirus-transfected Sf21 cells: FL-PRMT5; MW=73837 kDa and FL-MEP50; MW=38614); made in house; host or cells: baculovirus-transfected Sf21 cells
Experimental: PRMT5-MEP50 Enzyme Methylation Assay (Version A)
PRMT5-MEP50 biochemical assay is a direct measurement of the methylation activity of the enzyme complex on a short peptide substrate derived from the N-terminus of H4 histone. Methylation experiment was performed with recombinant PRMT5-MEP50 protein complex. The assessment of inhibitory effect of small molecules was measured by the effectiveness of the compounds to inhibit this reaction (EC50).
In this assay, the potency (EC50) of each compound was determined from a twenty-point (1:2 serial dilution; top compound concentration of 100000 nM) titration curve using the following outlined procedure. To each well of a white ProxiPlus 384 well-plate, 100 nL of compound (1% DMSO in final assay volume of 10 μL) was dispensed, followed by the addition of 8 μL of 1× assay buffer (50 mM Bicine pH 8.0, 1 mM DTT, 0.004% Tween20, 0.01% BSA) containing 1.25 nM of Full-length (FL)-PRMT5-MEP50 enzyme complex (recombinant proteins from baculovirus-transfected Sf21 cells: FL-PRMT5; MW=[…] and FL-MEP50; MW=38614) and 1 μL of 150 μM S-(5′-Adenosyl)-L-Methionine Chloride (SAM). A plate were sealed and placed in a 37° C. humidified chamber for a 60 minutes pre-incubation with compound. Subsequently, each reaction was initiated by the addition of 1 μL 1× assay buffer containing 750 nM biotinylated H4R3(Me1) peptide. The final reaction in each well of 10 μL consists of 1.0 nM PRMT5-MEP50, 75 nM biotinylated-peptide, and 15 μM SAM. Methylation reactions were allowed to proceed for 150 minutes in a sealed plate at 37° C. Reactions were immediately quenched by the addition of 1 μL of 5% formic acid. A plate was then frozen and shipped to SAMDI™ Tech Inc. to determine the percent conversion from H4R3(Me1) to H4R3(Me2). Dose-response curves were generated by plotting percent effect (% product conversion; Y-axis) vs. Log 10 compound concentrations (X-axis). EC50 values were determined by non-linear regression according to models for either sigmoidal (4 parameters) or biphasic (7 parameters) dose-response curves.

[2] = test system: symmetric dimethylation of arginine (SDMA) of PRMT5 substrates in MCF-7 cells; experiment: PRMT5 Cell Target Engagement (TE) Assay; type: cell-based; details: 3 days treatment, SDMA high content imaging
Source text: PRMT5 Cell Target Engagement (TE) Assay
The PRMT5 TE assay is a biomarker assay for identifying compounds that inhibit symmetric dimethylation of arginine (SDMA) of PRMT5 substrates. The following substrates have been reported for PRMT5: histone H2A and H4 R3, Histone H3 R2, Histone H3 R8, spliceosome Sm proteins, ribosomal protein RPS10, p53, FEN1, nucleoplasmin, nucleolin, EGFR and EBNA. The assay focuses on detecting symmetrically dimethylated nuclear proteins using high content imaging technology. Detection of the expression of symmetrically dimethylated nuclear proteins is through a mixture of primary rabbit monoclonal antibodies to SDMA (CST 13222), which in turn recognized by an Alexafluor 488 dye-conjugated anti-rabbit IgG secondary antibody. The IN Cell Analyzer 2200 or Opera-Phenix measures nuclear Alexafluor 488 fluorescent dye intensity that is directly related to the level of expression of symmetrically dimethylated nuclear proteins at the single cell level. Nuclear AF488 dye intensities are compared to the mean value for DMSO treated cells (MIN) to report percent of inhibition for each compound-treated well.
In this assay, the cell potency (EC50) of each compound was determined from a ten point (1:3 serial dilution; top compound concentration of 10000 nM) titration curve using the following outlined procedure. Each well of a BD falcon collagen coated black/clear bottom 384-well plate was seeded with 4000 MCF-7 cells in 30 μl media and allowed to attach for 5 h. Media is ATCC-formulated Eagle's Minimum Essential Medium, Catalog No. 30-2003. To make the complete growth medium, the following components were added to the base medium: 0.01 mg/mL human recombinant insulin; fetal bovine serum to a final concentration of 10%. Additional 30 μl of media containing 2× compounds were added to each well. Cells were treated for 3 days in 37° C. CO2 incubator. On day 3, cells were fixed with Cytofix, permeabilized with 0.4% Triton-X-100/Cytofix, and washed with D-PBS without Ca/Mg. Cells were blocked with Licor Odessey blocking reagent for 1 h at room temperature, followed by incubation with anti-SDMA (1:1000) antibody at 4° C. overnight. 1° antibody was removed, followed by three washings with DPBS without Ca/Mg and 0.05% Tween20. Hoechst (5 μg/mL), Cell Mask deep stain (1:2000) and Alexa488-conjugated goat anti-rabbit IgG (2 μg/mL) was added for 1 h at room temperature. A final washing step (three washes) was performed before sealing plate for imaging on In Cell Analyzer 2200 or Opera-Phenix. Images from analyzer were uploaded to Columbus (at WP or BOS) for image analysis. IC50 values were determined by 4 parameters robust fit of percent fluorescence units vs. (Log10) compound concentrations.

[3] = single EC50 = 4 parameter single site sigmoidal fit, EC50 1 = first value of 7 parameter biphasic fit, read-out: Enzyme Methylation Assay Version A (EC50 or EC50 1)
[4] = second value of 7 parameter biphasic fit, read-out: Enzyme Methylation Assay Version A (EC50 2)

T1 sequence (O14744 whole entry): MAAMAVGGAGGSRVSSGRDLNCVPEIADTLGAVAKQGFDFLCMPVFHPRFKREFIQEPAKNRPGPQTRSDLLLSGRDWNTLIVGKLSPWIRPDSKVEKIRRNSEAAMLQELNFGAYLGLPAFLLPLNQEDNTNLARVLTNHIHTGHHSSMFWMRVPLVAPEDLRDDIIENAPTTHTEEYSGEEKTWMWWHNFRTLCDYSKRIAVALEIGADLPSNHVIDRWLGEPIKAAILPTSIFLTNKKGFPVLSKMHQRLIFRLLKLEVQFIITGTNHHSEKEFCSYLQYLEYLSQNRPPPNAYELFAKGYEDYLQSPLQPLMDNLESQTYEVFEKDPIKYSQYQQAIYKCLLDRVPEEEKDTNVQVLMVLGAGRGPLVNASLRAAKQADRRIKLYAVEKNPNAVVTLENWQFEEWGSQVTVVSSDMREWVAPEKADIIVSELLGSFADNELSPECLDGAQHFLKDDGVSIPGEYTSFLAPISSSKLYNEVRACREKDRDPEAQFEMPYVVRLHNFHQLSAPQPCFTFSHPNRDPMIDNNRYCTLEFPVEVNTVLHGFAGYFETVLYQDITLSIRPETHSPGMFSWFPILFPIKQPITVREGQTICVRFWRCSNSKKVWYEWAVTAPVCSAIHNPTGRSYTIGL
T1 sequence (Q9BQA1 whole entry partner): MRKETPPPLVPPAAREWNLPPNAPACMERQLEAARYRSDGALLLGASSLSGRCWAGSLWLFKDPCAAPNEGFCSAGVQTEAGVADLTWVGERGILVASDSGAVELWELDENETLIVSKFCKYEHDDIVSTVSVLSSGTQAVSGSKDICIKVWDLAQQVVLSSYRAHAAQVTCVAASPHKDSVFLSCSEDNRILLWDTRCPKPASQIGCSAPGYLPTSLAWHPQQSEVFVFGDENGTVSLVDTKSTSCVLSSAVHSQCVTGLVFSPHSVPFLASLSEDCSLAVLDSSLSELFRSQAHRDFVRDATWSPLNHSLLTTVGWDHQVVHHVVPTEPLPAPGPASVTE

| SMILES | EC50 [1, 3] [µM] | EC50 ([2]; Homo sapiens, MCF7, 72 h) [µM] | EC50 [1, 4] [µM] | EC50 [2] [µM] |
| --- | --- | --- | --- | --- |
| CO[C@H](C)c1cc(N(C)CCn2ccnc2C)cn2cc(C(=O)N3CC[C@]4(Cc5ccccc5CN4)[C@H](O)C3)nc12 [Example 233, [(3R,3′R)-3′-hydroxy-1,4-dihydro-1′H,2H-spiro[isoquinoline-3,4′-piperidin]-1′-yl](8-[(1R)-1-methoxyethyl]-6-{methyl[2-(2-methyl-1H-imidazol-1-yl)ethyl]amino}imidazo[1,2-a]pyridin-2-yl)methanone] | 0.00369 | 0.0762 |  |  |
| O=C(c1cn2ncnc2cn1)N1CC[C@]2(Cc3ccccc3CN2)[C@H](O)C1 [Example 194, [(3R,3′R)-3′-hydroxy-1,4-dihydro-1′H,2H-spiro[isoquinoline-3,4′-piperidin]-1′-yl]([1,2,d]triazolo[1,5-a]pyrazin-6-yl)methanone] | 0.479 | ≥ 10 | ≥ 100 |  |
| O=C(c1cn2cc(Br)cc(C(O)C(F)(F)F)c2n1)N1CC[C@]2(Cc3ccccc3CN2)[C@H](O)C1 (single isomer, unassigned) [Example 30, (6-bromo-8-((R or S)-2,2,2-trifluoro-1-hydroxyethyl)imidazo[1,2-a]pyridin-2-yl)((3R,3’R)-3′-hydroxy-1,4-dihydro-2H-spiro[isoquinoline-3,4′-piperidin]-1′-yl)methanone] | 0.000584 | 0.00362 | 0.0994 |  |
| CO[C@H](C)c1cc(CN2CCCC2)cn2cc(C(=O)N3CC[C@]4(Cc5ccccc5CN4)[C@H](O)C3)nc12 [Example 247, [(3R,3′R)-3′-hydroxy-1,4-dihydro-1′H,2H-spiro[isoquinoline-3,4′-piperidin]-1′-yl]{8-[(1R)-1-methoxyethyl]-6-(1-pyrrolidinylmethyl)imidazo[1,2-a]pyridin-2-yl}methanone] | 0.000661 | 0.0753 | 0.646 |  |
| O=C(c1cn2cc(C(F)(F)F)cc(C3CCOC3)c2n1)N1CC[C@]2(Cc3ccccc3CN2)[C@H](O)C1 (stereo partly drawn) [Example 154, ((3R,3′R)-3′-hydroxy-2,4-dihydro-1H-spiro[isoquinoline-3,4′-piperidin]-1′-yl)(8-(tetrahydrofuran-3-yl)-6-(trifluoromethyl)imidazo[1,2-a]pyridin-2-yl)methanone] | 0.000802 | 0.00442 | 0.266 |  |
| CC(n1ccc(C(=O)N2CC[C@]3(Cc4ccccc4CN3)[C@H](O)C2)cc1=O)C(F)(F)F (single isomer, unassigned) [Example 103, 4-((3R,3′R)-3′-hydroxy-2,4-dihydro-1H-spiro[isoquinoline-3,4′-piperidin]-1′-ylcarbonyl)-1-((R or S)1,1,1-trifluoropropan-2-yl)pyridin-2(1H)-one] | 0.171 |  | 80 | 2.86 |
| O=C(c1ccc2c(O)c(C3CC3)cnc2c1)N1CC[C@]2(Cc3ccccc3CN2)[C@H](O)C1 [Example 9, (3-cyclopropyl-4-hydroxyquinolin-7-yl)((3R,3’R)-3′-hydroxy-1,4-dihydro-1′H,2H-spiro[isoquinoline-3,4′-piperidin]-1′-yl)methanone] | 0.0135 | 0.694 | 4.68 |  |
| COC[C@H]1C[C@@H](C(F)(F)F)Cn2cc(C(=O)N3CC[C@]4(Cc5ccccc5CN4)[C@H](O)C3)nc21 (single isomer, unassigned) [Example 155] | 0.00526 | 0.122 | 3.98 |  |
| Cc1cnc2nc(C(=O)N3CC[C@]4(Cc5ccccc5CN4)[C@H](O)C3)cn2c1 [Example 120, [(3R,3′R)-3′-hydroxy-1,4-dihydro-1′H,2H-spiro[isoquinoline-3,4′-piperidin]-1′-yl](6-methylimidazo[1,2-a]pyrimidin-2-yl)methanone] | 0.0005 | 0.0288 | 0.351 |  |
| Cc1cc(-c2onc(C)c2C(=O)N2CC[C@]3(Cc4ccccc4CN3)[C@H](O)C2)no1 [Example 183, (3′,5-dimethyl-[3,5′-biisoxazol]-4′-yl)((3R,3′R)-3′-hydroxy-1,4-dihydro-2H-spiro[isoquinoline-3,4′-piperidin]-1′-yl)methanone] | 0.00487 | 0.297 | 7.94 |  |
| O=C(c1cn2cc(O)cnc2n1)N1CC[C@]2(Cc3ccccc3CN2)[C@H](O)C1 [Example 129, [(3R,3′R)-3′-hydroxy-1,4-dihydro-1′H,2H-spiro[isoquinoline-3,4′-piperidin]-1′-yl](6-hydroxyimidazo[1,2-a]pyrimidin-2-yl)methanone] | 0.836 | ≥ 10 |  |  |
| N#Cc1ccc2nc(C(=O)N3CC[C@]4(Cc5ccccc5CN4)[C@H](O)C3)cn2c1 [Example 36, 2-((3R,3’R)-3′-hydroxy-1,4-dihydro-2H-spiro[isoquinoline-3,4′-piperidine]-1′-carbonyl)imidazo[1,2-a]pyridine-6-carbonitrile] | 0.00626 | 0.0132 | 2.82 |  |
| Cc1cc(I)c2nc(C(=O)N3CC[C@]4(Cc5ccccc5CN4)[C@H](O)C3)cn2c1 [Example 203, [(3R,3′R)-3′-hydroxy-1,4-dihydro-1′H,2H-spiro[isoquinoline-3,4′-piperidin]-1′-yl](8-iodo-6-methylimidazo[1,2-a]pyridin-2-yl)methanone] | 0.000846 | 0.0257 | 0.292 |  |
| COC(C)c1cnc2nc(C(=O)N3CC[C@]4(Cc5ccccc5CN4)[C@H](O)C3)cn2c1 (single isomer, unassigned) [Example 137] | 0.00192 |  | 0.251 | 0.124 |
| Cc1nc(C)c(-c2cnc3nc(C(=O)N4CC[C@]5(Cc6ccccc6CN5)[C@H](O)C4)cn3c2)s1 [Example 79, [6-(2,4-dimethyl-1,3-thiazol-5-yl)imidazo[1,2-a]pyrimidin-2-yl][(3R,3′R)-3′-hydroxy-1,4-dihydro-1′H,2H-spiro[isoquinoline-3,4′-piperidin]-1′-yl]methanone] | 0.00108 | 0.0053 |  |  |
| COCCN1CC(C2CC2)Cn2cc(C(=O)N3CC[C@]4(Cc5ccccc5CN4)[C@H](O)C3)nc21 (single isomer, unassigned) [Example 144] | 0.0659 |  |  | 0.173 |
| COCC1CC(C)Cn2cc(C(=O)N3CC[C@]4(Cc5ccccc5CN4)[C@H](O)C3)nc21 (single isomer, unassigned) [Example 157] | 0.00894 |  | 6.46 | 0.275 |
| COCCN1CC(C2CC2)Cn2cc(C(=O)N3CC[C@]4(Cc5ccccc5CN4)[C@H](O)C3)nc21 (single isomer, unassigned) [Example 143] | 0.184 | 0.318 |  |  |
